Reference: ChEMBL document CHEMBL3098115, “Drug discovery considerations in the development of covalent inhibitors” (2014)

Experiments:
Assay type in all cases: functional
Mus musculus [1] = assay: Ex vivo inhibition of CE6 in C57BL/6 mouse liver at 1 mg/kg, ip after 1 hr relative to vehicle-treated control; details: C57BL/6, Liver, route intraperitoneal
Mus musculus [2] = assay: Ex vivo inhibition of CE6 in C57BL/6 mouse kidney at 1 mg/kg, ip after 1 hr relative to vehicle-treated control; details: C57BL/6, Kidney, route intraperitoneal
Mus musculus [3] = assay: Ex vivo inhibition of EST31 in C57BL/6 mouse liver at 1 mg/kg, ip after 1 hr relative to vehicle-treated control; details: C57BL/6, Liver, route intraperitoneal
Mus musculus [4] = assay: Ex vivo inhibition of EST31 in C57BL/6 mouse kidney at 1 mg/kg, ip after 1 hr relative to vehicle-treated control; details: C57BL/6, Kidney, route intraperitoneal

Measured: inhibition in vivo at 1 mg/kg

C#CCCCCCCCCCNC(=O)Oc1cccc(-c2cccc(C(N)=O)c2)c1
< 20%: Mus musculus [1] | Mus musculus [2] | Mus musculus [3] | Mus musculus [4]
